Experimental data taken from patent publication US11000033B2, “Ketone or oxime compound, and herbicide” (NISSAN CHEMICAL CORPORATION, priority 2014, dated 2021).

Columns and labels:
Assay type in all cases: in vivo
Leptochloa chinensis = assay: Test Example 3: herbicidal effect by foliage application, Wagner pot (symbol D); details: application herbicide amount 320 g/ha; for D (Leptochloa chinensis) herbicidal effect grade: Table 24
Method in brief: (§1)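 Rating at 3 weeks post-spray, by defined criteria. Treatment: emulsion diluted with water to a predetermined amount, applied evenly to foliage of 14-day-old plants raised in alluvial soil flooded 0.1–0.5 cm deep at 25–30 °C, rice co-sown.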

Abutilon theophrasti = assay: Test Example 5: herbicidal effect by foliage application, plastic box (symbol M); details: 320 g/ha, 3 weeks after application
Method in brief: (§2)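 Greenhouse foliar test: seedlings at 14 days, grown 25° C. to 30° C. in sterilized diluvial soil; compound applied as an aqueous dilution of an emulsion; response read 3 weeks after spraying.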

transplanted rice plant = assay: Test Example 1: effect on crop, application before weed generation in submerged conditions (symbol a); details: application herbicide amount 320 g/ha
Method in brief: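 Rice at 2.5 leaf stage transplanted into submerged soil (4 cm depth) sown with three weed species; herbicide applied before weed emergence.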

Apera spica-venti [1] = assay: Test Example 4: herbicidal effect by soil treatment (symbol L); details: for L: Apera spica-venti, herbicidal effect grade: 320 g/ha; for Herbicidal effect grade, L: Apera spica-venti: application herbicide amount 320 g/ha
Method in brief: (§3)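 Seeds were sown in sterilized diluvial soil, covered with about 1.5 cm of soil, and the soil surface was sprayed with a water-diluted emulsion of the compound at a predetermined rate. Plants grew in a greenhouse at 25° C. to 30° C.; effects were scored visually 3 weeks after application.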

[2] = test system: Echinochloa crus-galli var. crus-galli; assay: Test Example 5: herbicidal effect by foliage application, plastic box (symbol H); details: 320 g/ha, 3 weeks after application
Method in brief: as §2

Amaranthus retroflexus = assay: Test Example 4: herbicidal effect by soil treatment (symbol N); details: for N: Amaranthus retroflexus, herbicidal effect grade: 320 g/ha; for Herbicidal effect grade, N: Amaranthus retroflexus: application herbicide amount 320 g/ha
Method in brief: as §3

Veronica persica = assay: Test Example 4: herbicidal effect by soil treatment (symbol R); details: for R: Veronica persica, herbicidal effect grade: 320 g/ha; for Herbicidal effect grade, R: Veronica persica: application herbicide amount 320 g/ha
Method in brief: as §3

[3] = test system: Echinochloa crus-galli var. crus-galli; assay: Test Example 3: herbicidal effect by foliage application, Wagner pot (symbol H); details: application herbicide amount 320 g/ha; for H (Echinochloa crus-galli var. crus-galli) herbicidal effect grade: Table 24
Method in brief: as §1

Cyperus difformis = assay: Test Example 3: herbicidal effect by foliage application, Wagner pot (symbol E); details: application herbicide amount 320 g/ha; for E herbicidal effect grade: Table 24
Method in brief: as §1

Stellaria media = assay: Test Example 4: herbicidal effect by soil treatment (symbol P); details: for P: Stellaria media, herbicidal effect grade: 320 g/ha; for Herbicidal effect grade, P: Stellaria media: application herbicide amount 320 g/ha
Method in brief: as §3

Apera spica-venti [4] = assay: Test Example 5: herbicidal effect by foliage application, plastic box (symbol L); details: 320 g/ha, 3 weeks after application
Method in brief: as §2

Setaria viridis = assay: Test Example 5: herbicidal effect by foliage application, plastic box (symbol G); details: 320 g/ha, 3 weeks after application
Method in brief: as §2

soybean [5] = assay: Test Example 4: effect on crop by soil treatment (symbol d); details: for d: soybean, effect grade on crop: 320 g/ha; for Effect on crop grade, d: soybean: application herbicide amount 320 g/ha
Method in brief: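 Plants are raised in a greenhouse (25° C. to 30° C.) from spot-sown seed, which sits under about 1.5 cm of sterilized diluvial soil in a box shared with weed species.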

Alopecurus myosuroides = assay: Test Example 4: herbicidal effect by soil treatment (symbol J); details: for J: Alopecurus myosuroides, herbicidal effect grade: 320 g/ha; for Herbicidal effect grade, J: Alopecurus myosuroides: application herbicide amount 320 g/ha
Method in brief: as §3

soybean [6] = assay: Test Example 5: effect on crop by foliage application, plastic box (symbol d); details: 320 g/ha, 3 weeks after application
Method in brief: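 Diluvial soil, sterilized and boxed (21 × 13 × 7 cm), received spot-sown seed covered by about 1.5 cm soil; plants were then greenhouse-grown at 25–30° C.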

SMILES	herbicidal effect on D (Leptochloa chinensis), grade 0-5 (Leptochloa chinensis)	M: Abutilon theophrasti, herbicidal effect (criteria 0-5) (Abutilon theophrasti)	Effect grade on crop, a: transplanted rice plant (transplanted rice plant)	L: Apera spica-venti, herbicidal effect grade (Apera spica-venti [1])	H: Echinochloa crus-galli var. crus-galli, herbicidal effect (criteria 0-5) [2]	N: Amaranthus retroflexus, herbicidal effect grade (Amaranthus retroflexus)	R: Veronica persica, herbicidal effect grade (Veronica persica)	herbicidal effect on H (Echinochloa crus-galli var. crus-galli), grade 0-5 [3]	herbicidal effect on E, grade 0-5 (Cyperus difformis)	P: Stellaria media, herbicidal effect grade (Stellaria media)	L: Apera spica-venti, herbicidal effect (criteria 0-5) (Apera spica-venti [4])	G: Setaria viridis, herbicidal effect (criteria 0-5) (Setaria viridis)	d: soybean, effect grade on crop (soybean [5])	J: Alopecurus myosuroides, herbicidal effect grade (Alopecurus myosuroides)	d: soybean, effect on crop (criteria 0-5) (soybean [6])	D (Leptochloa chinensis) herbicidal effect grade (Leptochloa chinensis)	M: Abutilon theophrasti, herbicidal effect grade (Abutilon theophrasti)	a (transplanted rice plant) effect on crop grade (transplanted rice plant)	Herbicidal effect grade, L: Apera spica-venti (Apera spica-venti [1])	H: Echinochloa crus-galli var. crus-galli, herbicidal effect grade [2]	also measured
CCCCCCCCS(=O)(=O)OC1=C(c2c(C)cc(C)cc2C)C(=O)C(CC(C)=NOC)C1 (stereo not drawn) [1-107]	5 (Herbicidal ratio of 90% or more (almost completely withered))	1 (Herbicidal ratio of 5% or higher and lower than 20%)	3 (Herbicidal ratio of 40% or higher and lower than 70%)	5 (Herbicidal ratio of 90% or more (almost completely withered))	5 (Herbicidal ratio of 90% or more (almost completely withered))	0 (Herbicidal ratio of 5% or lower (almost no effect))	0 (Herbicidal ratio of 5% or lower (almost no effect))	5 (Herbicidal ratio of 90% or more (almost completely withered))	5 (Herbicidal ratio of 90% or more (almost completely withered))	0 (Herbicidal ratio of 5% or lower (almost no effect))	5 (Herbicidal ratio of 90% or more (almost completely withered))	5 (Herbicidal ratio of 90% or more (almost completely withered))	0 (Herbicidal ratio of 5% or lower (almost no effect))	5 (Herbicidal ratio of 90% or more (almost completely withered))	3 (Herbicidal ratio of 40% or higher and lower than 70%)						
CON=C(C)CC1CC(OC(=O)N(C)C)=C(c2c(C)cc(C)cc2C)C1=O (stereo not drawn) [1-108]	5 (Herbicidal ratio of 90% or more (almost completely withered))	4 (Herbicidal ratio of 70% or higher and lower than 90%)	5 (Herbicidal ratio of 90% or more (almost completely withered))	5 (Herbicidal ratio of 90% or more (almost completely withered))	5 (Herbicidal ratio of 90% or more (almost completely withered))	0 (Herbicidal ratio of 5% or lower (almost no effect))	0 (Herbicidal ratio of 5% or lower (almost no effect))	5 (Herbicidal ratio of 90% or more (almost completely withered))	5 (Herbicidal ratio of 90% or more (almost completely withered))	0 (Herbicidal ratio of 5% or lower (almost no effect))	5 (Herbicidal ratio of 90% or more (almost completely withered))	5 (Herbicidal ratio of 90% or more (almost completely withered))	0 (Herbicidal ratio of 5% or lower (almost no effect))	5 (Herbicidal ratio of 90% or more (almost completely withered))	3 (Herbicidal ratio of 40% or higher and lower than 70%)						
CC#Cc1cc(C)c(C2=C(O)CC(CC(=NOCCOC)C(C)C)C2=O)c(C)c1 (stereo not drawn) [9-023]																5 (Herbicidal ratio of 90% or more (almost completely withered))	0 (Herbicidal ratio of 5% or lower (almost no effect))	5 (Herbicidal ratio of 90% or more (almost completely withered))	5 (Herbicidal ratio of 90% or more (almost completely withered))	5 (Herbicidal ratio of 90% or more (almost completely withered))	Herbicidal effect grade, N: Amaranthus retroflexus (Amaranthus retroflexus): 5 (Herbicidal ratio of 90% or more (almost completely withered)); Herbicidal effect grade, R: Veronica persica (Veronica persica): 0 (Herbicidal ratio of 5% or lower (almost no effect)); H (Echinochloa crus-galli var. crus-galli) herbicidal effect grade [3]: 5 (Herbicidal ratio of 90% or more (almost completely withered)); E herbicidal effect grade (Cyperus difformis): 5 (Herbicidal ratio of 90% or more (almost completely withered)); Herbicidal effect grade, P: Stellaria media (Stellaria media): 0 (Herbicidal ratio of 5% or lower (almost no effect)); L: Apera spica-venti, herbicidal effect grade (Apera spica-venti [4]): 5 (Herbicidal ratio of 90% or more (almost completely withered)); G: Setaria viridis, herbicidal effect grade (Setaria viridis): 5 (Herbicidal ratio of 90% or more (almost completely withered)); Effect on crop grade, d: soybean (soybean [5]): 0 (Herbicidal ratio of 5% or lower (almost no effect)); Herbicidal effect grade, J: Alopecurus myosuroides (Alopecurus myosuroides): 3 (Herbicidal ratio of 40% or higher and lower than 70%); d: soybean, effect on crop grade (soybean [6]): 0 (Herbicidal ratio of 5% or lower (almost no effect))
CC#Cc1cc(C)c(C2=C(O)CC(CC(C)=NOCC(F)(F)F)C2=O)c(C)c1 (stereo not drawn) [9-011]																5 (Herbicidal ratio of 90% or more (almost completely withered))	2 (Herbicidal ratio of 20% or higher and lower than 40%)	5 (Herbicidal ratio of 90% or more (almost completely withered))	5 (Herbicidal ratio of 90% or more (almost completely withered))	5 (Herbicidal ratio of 90% or more (almost completely withered))	Herbicidal effect grade, N: Amaranthus retroflexus (Amaranthus retroflexus): 0 (Herbicidal ratio of 5% or lower (almost no effect)); Herbicidal effect grade, R: Veronica persica (Veronica persica): 0 (Herbicidal ratio of 5% or lower (almost no effect)); H (Echinochloa crus-galli var. crus-galli) herbicidal effect grade [3]: 5 (Herbicidal ratio of 90% or more (almost completely withered)); E herbicidal effect grade (Cyperus difformis): 5 (Herbicidal ratio of 90% or more (almost completely withered)); Herbicidal effect grade, P: Stellaria media (Stellaria media): 0 (Herbicidal ratio of 5% or lower (almost no effect)); L: Apera spica-venti, herbicidal effect grade (Apera spica-venti [4]): 5 (Herbicidal ratio of 90% or more (almost completely withered)); G: Setaria viridis, herbicidal effect grade (Setaria viridis): 5 (Herbicidal ratio of 90% or more (almost completely withered)); Effect on crop grade, d: soybean (soybean [5]): 0 (Herbicidal ratio of 5% or lower (almost no effect)); Herbicidal effect grade, J: Alopecurus myosuroides (Alopecurus myosuroides): 5 (Herbicidal ratio of 90% or more (almost completely withered)); d: soybean, effect on crop grade (soybean [6]): 2 (Herbicidal ratio of 20% or higher and lower than 40%)
CON=C(C)CC1CC(OC(=O)C(CSC)=NOC)=C(c2c(C)cc(C)cc2C)C1=O (stereo not drawn) [1-098]	5 (Herbicidal ratio of 90% or more (almost completely withered))	4 (Herbicidal ratio of 70% or higher and lower than 90%)	5 (Herbicidal ratio of 90% or more (almost completely withered))	5 (Herbicidal ratio of 90% or more (almost completely withered))	5 (Herbicidal ratio of 90% or more (almost completely withered))	4 (Herbicidal ratio of 70% or higher and lower than 90%)	0 (Herbicidal ratio of 5% or lower (almost no effect))	5 (Herbicidal ratio of 90% or more (almost completely withered))	5 (Herbicidal ratio of 90% or more (almost completely withered))	0 (Herbicidal ratio of 5% or lower (almost no effect))	5 (Herbicidal ratio of 90% or more (almost completely withered))	5 (Herbicidal ratio of 90% or more (almost completely withered))	2 (Herbicidal ratio of 20% or higher and lower than 40%)	5 (Herbicidal ratio of 90% or more (almost completely withered))	3 (Herbicidal ratio of 40% or higher and lower than 70%)						
